# Reference: patent US7029652B2, “Method of treating tumors” (The Regents of the University of California, priority 1998, dated 2006)
# pIC50: −log10 of the molar value.
# Key:
# HBT 3477 tumors [1] = conditions: 250 μg provided 1 hour before RIT; cited from earlier work
# HBT 3477 tumors [2] = assay: TUNEL analysis of total cell apoptosis in tumors; type: in vivo, mice; conditions: 1 day after treatment
# Experimental: (§1) Cellular immunopathology groups. Unless otherwise noted, groups consisted of 2 mice, each bearing 2 tumors, for a total of 4 tumors analyzed at each time point. […] The tumors were removed, cut in half, frozen in optimal cutting temperature (O.C.T). medium, and stored at about −70° C. until sectioning (10-μm sections). All time points were evaluated for apoptosis by terminal deoxynucleotidyl transferase-mediated dUTP nick end labeling (TUNEL, Cavrieli, et al. J. Cell Bio., 119: 493–501 (1992)) analysis, and selected time points (untreated, 1,5 and 6 days) were assessed for differences in proliferation rate (Ki67) and microvessel density (CD31).
# TUNEL analysis of total and endothelial apoptosis. Tumors were cut into 10-μm sections onto Fisher superplus slides (Fisher, Pittsburgh, Pa.), air-dried for 1 hour and frozen at about −70° C. until TUNEL analysis with ApopTag Red kit (rhodamine used as label, Intergen, Purchase, N.Y.) following the manufacturer's instructions subsequent to fixation for about 10 minutes in 1% paraformadehyde. After TUNEL, the slides were rinsed, and incubated overnight at 4° C. with a rat anti-mouse MAb against CD31 at 1:100 dilution (Pharmingen, San Diego, Calif.) to identify endothelial cells. Slides were rinsed and incubated for 1 hour with an anti-rat antibody linked to FITC (1:50 dilution) (Pharmingen). Slides were rinsed, dipped briefly in 4,6-diamidino-2-phenylindole (DAPI, 0.2 μg/ml) for background nuclear stain, rinsed again and mounted, followed by storage in the dark at about 4° C. until quantitation.
# Quantitation of total apoptosis and endothelial apoptosis. An Olympus microscope equipped with a Chroma Pinkle Filter Set (Chroma, Brattleboro, Vt.) with excitation filters for UV, FITC and rhodamine and dual/triple bandpass filters to allow simultaneous viewing of multiple wavelengths, was used to quantify 6 randomly chosen X600 fields (150,000 μm^2/field) in non-necrotic regions of each section. Fields were chosen to cover the entire viewing area using DAPI label, which typically included about 300–350 cells. Total apoptosis was determined by the average number of positive nuclei per field for each tumor while endothelial apoptosis was determined using the same fields with a dual bandpass filter to count cells labeled by both FITC (CD31) and rhodamine (TUNEL). Fields were chosen from apparently non-necrotic areas of tumor sections, as HBT 3477 xenografts typically grow quickly in nude mice, doubling their volumes in 6 days, resulting in central necrosis of untreated tumors. As TUNEL may label necrotic cells, though less intensely, this strategy was chosen over a completely random process.
# HBT 3477 tumors [3] = assay: Microvessel density (CD31) in tumors; type: in vivo, mice
# Experimental: as §1
# (§2) Proliferation and microvessel density Analyses. 10-μm sections of tumors from untreated and mice treated with cRGD pentapeptide, RIT and CMRIT method and sacrificed at 1, 5 and 6 days after treatment were fixed for 10 minutes in ice-cold acetone, rinsed in PBS, and briefly incubated in methanol with 0.6% H2O2 (5 minutes). After rinsing in PBS, sections were blocked for 10 minutes with 10% goat serum and 1% bovine serum albumin in PBS. Mouse anti-Ki67 MAb (Pharmingen, clone B56) was applied in blocking solution (6.25 μg/ml) and the slides were incubated at room temperature for 2 hours, followed by rinsing in PBS. Goat anti-mouse rhodamine-labeled or goat anti-mouse Cy-3-labeled antibody was applied (Jackson ImmunoResearch Laboratories, Inc, West Grove, Pa., 1:100) and the slides were incubated for 1 hour at room temperature. After rinsing in PBS the sections were incubated for 1 hour at room temperature with rat anti-mouse CD31 antibody (Pharmingen, 1:100), followed by rinsing in PBS and a subsequent 1 hour incubation with goat anti-rat FITC-labeled antibody (Pharmingen, 1:50). After rinsing in PBS, the slides were counterstained with DAPI (0.4 μg/ml) and mounted in Biomeda gel mount (Fisher) under coverslips. Quantitation of Ki67 was performed using an Olympus microscope at X1000 magnification for assessment of proliferation. The mean total number of Ki67-positive cells/field in a tumor was determined by counts from 6 fields per tumor chosen randomly by DAPI stain. Microvessel density was determined by counting the number of CD31-stained vessels per random field at X400 magnification. Any endothelial cell or cell cluster positive for CD31, which was separate from an adjacent cluster, was counted as one microvessel. Six randomly chosen fields per tumor section were used to establish an average for each tumor. Average microvessel density for a treatment group was determined by averaging the values from 4 tumors/group.
# HBT 3477 tumors [4] = assay: Proliferation (Ki67) in tumors; type: in vivo, mice
# Experimental: as §1, §2
# HBT 3477 cells = assay: Attachment of HBT 3477 cells to vitronectin; type: cell-based, human; conditions: read-out: IC50 for blocking attachment of HBT 3477 cells to vitronectin
# Source text: Cell Lines. HBT 3477, a human breast adenocarcinoma cell line, was obtained from Bristol-Myers Squibb Pharmaceutical Research Institute (Seattle, Wash.). Greater than 70% of HBT 3477 cells stain intensely with L6. In HBT 3477 cells, bcl-2 is expressed and p53 is mutant, with a nonsense mutation in exon 10, resulting in a deletion in the region of the p53 protein that functions in tetramerization and in detection of double-stranded DNA breaks. HBT 3477 cells express functional αvβ5 integrin, but not αvβ3 integrin, as attachment to vitronectin is blocked by αvβ5-specific P1F6 antibody, but is not blocked by αvβ3-specific LM609 antibody.
# HBT 3477 tumors [5] = assay: Tumoricidal effect in HBT 3477 breast cancer xenografts; type: in vivo, mice; conditions: for Cure (number of mice): worst response of 2-tumored mice, 84 days
# Experimental: Mice. Female athymic Balb/c nu/nu mice (7–10 week old; Harlan Sprague Dawley, Inc., Frederick, Md.) were maintained according to University of California animal care guidelines. HBT 3477 cells (3.0×10^6), harvested in log phase, were injected subcutaneously into one side of the abdomen for therapy studies (except where noted) and into both sides for immunopathology studies. Injection of RIT was by tail vein and cyclo-(Arg-Gly-Asp-D-Phe-[N-Me]-Val) was delivered by intraperitoneal (i.p.) injection. “Day 0” was designated as the time of RIT injection or, for first cRGD pentapeptide injection, for cRGD pentapeptide only group. Mice were sacrificed by cervical dislocation for immunopathology studies at the times indicated, when tumor burden exceeded allowed limits, or at 84 days for therapy studies.
# Control (No RIT) Treatment groups.
# High Dose RIT Treatment groups.
# Low Dose RIT Treatment groups. […] These doses were given on day 0, 1 hour prior to RIT, followed by 5 more doses on days 2, 4, 6, 8, and 10 (30 mice, all with 1 tumor each).
# Tumoricidal effect. Tumors were measured with calipers in 3 orthogonal diameters 3 times per week. Tumor volume was calculated using the formula for hemiellipsoids (DeNardo et al. Clin. Cancer Res., 3:71–79 (1997)). Initial tumor volume was defined as the volume on the day before treatment. Tumors that completely regressed were considered to have a volume of zero. […] For mice bearing two tumors with differing responses, tumor response was described according to both tumor responses. Mice dying prior to 30 days from toxicity were excluded from tumor response results.
# (§3) Statistical Analysis. Statistical analysis of mortality data for RIT and CMRIT method treated mice was performed using a Fisher Exact test with StatExact software to determine if mortality was different. Statistical analysis of therapy data was done using a Cochran Mantel Haenszel test to evaluate effect of RIT dose on outcome for RIT and CMRIT method groups. Comparison of cure rates to all other responses for RIT vs. CMRIT method groups was done by Fisher Exact test, with the best tumor response used for 2-tumored animals for statistical purposes. Statistical differences between immunopathology groups at the different time points were assessed by analysis of variance (ANOVA) (Fisher PLSD) using STATview software as appropriate, with p<0.05 considered significant.
# [6] = tested on: endothelial cells in HBT 3477 tumors; assay: TUNEL/CD31 analysis of endothelial apoptosis in tumors; type: in vivo, mice
# Experimental: as §1
# TUNEL analysis of total and endothelial apoptosis. […] Slides were rinsed, dipped briefly in 4,6-diamidino-2-phenylindole (DAPI, 0.2 μg/ml) for background nuclear stain, rinsed again and mounted, followed by storage in the dark at about 4° C. until quantitation.
# Quantitation of total apoptosis and endothelial apoptosis. An Olympus microscope equipped with a Chroma Pinkle Filter Set (Chroma, Brattleboro, Vt.) with excitation filters for UV, FITC and rhodamine and dual/triple bandpass filters to allow simultaneous viewing of multiple wavelengths, was used to quantify 6 randomly chosen X600 fields (150,000 μm^2/field) in non-necrotic regions of each section. […]
# [7] = Toxicity: mortality, weights and blood counts; type: in vivo; conditions: comparison as stated in the sentence
# Experimental: Toxicity. Weights and blood counts were measured 2–3 times per week for 12 weeks post-injection or until death. Blood samples were collected from tail veins using 2 μL microcapillary pipets. Samples from mice within a dose group were pooled, and diluted 1:200 in phosphate-buffered saline (PBS, 0.9% saline/10 mM sodium phosphate, pH 7.6) for red blood cell (RBC) counts; 1:100 in 1% (w/v) ammonium oxalate for platelet counts; or 1:20 in 3% (w/v) acetic acid for white blood cell (WBC) counts.
# as §3
# [8] = tested on: αvβ3-expressing M21 melanoma cells; conditions: stated in words; cited from earlier work
Compound,increased uptake of RIT by HBT 3477 tumors (HBT 3477 tumors [1]),"total cell apoptosis, percent of cells (HBT 3477 tumors [2]) [%]","TUNEL-positive tumor and endothelial cells (total cells) (HBT 3477 tumors [2]; X600, about 350 cells/field) [cells/field]","Microvessel density, average number ± SE of CD31 positive regions (HBT 3477 tumors [3]; Day 1, six fields per tumor at 400X)","Microvessel density, average number ± SE of CD31 positive regions (HBT 3477 tumors [3]; Day 5)","Proliferating cells, average no. of Ki67-positive cells (HBT 3477 tumors [4]; Day 1, six fields per tumor at 1000X) [f]","Proliferating cells, average no. of Ki67-positive cells (HBT 3477 tumors [4]; Day 5) [f]",pIC50 (HBT 3477 cells),"effect on tumor growth (HBT 3477 tumors [5]; 6×250 μg doses given every other day, in words)","cures (HBT 3477 tumors [5]; no RIT, 6 × 250 μg i.p.) [%]","CR complete regression (number of mice) (HBT 3477 tumors [5]; no RIT, worst response)","NR no regression (number of mice) (HBT 3477 tumors [5]; no RIT, worst response)","PR partial regression (number of mice) (HBT 3477 tumors [5]; no RIT, worst response)",Cure (number of mice) (HBT 3477 tumors [5]; no RIT),"Cure (number of mice) (HBT 3477 tumors [5]; no RIT, listed as cRGD pentapeptide)",endothelial apoptosis ([6]; 1 day after treatment) [cells/field],endothelial apoptosis ([6]; 5 days after treatment) [cells/field],"mortality or toxicity, in words [7]",IC50 for αvβ3-expressing M21 melanoma cells [8]
cyclo-(Arg-Gly-Asp-D-Phe-1-aminocyclohexane carboxylic acid) [EMD 270179],up to 50%,–,–,–,–,–,–,–,–,–,–,–,–,–,–,–,–,–,–
CC(C)[C@H]1C(=O)N[C@@H](CCCN=C(N)N)C(=O)NCC(=O)N[C@@H](CC(=O)O)C(=O)N[C@H](Cc2ccccc2)C(=O)N1C [cyclo-(Arg-Gly-Asp-D-Phe-[N-Me]-Val)],–,4.6,16.2±1.89,12 ± 2,20 ± 4,14 ± 2,13 ± 1,~5.30,No apparent effect,0,0,18,0,no cures,0,2.5±0.5,2.4±0.7,No increased mortality or toxicity,low micromolar range
